Key:
[1] = molecular target: T1, 12-LOX in platelets (Homo sapiens, UniProt P18054); conditions: 100 μM inhibitor, three separate experiments
T1 sequence (P18054 1-663): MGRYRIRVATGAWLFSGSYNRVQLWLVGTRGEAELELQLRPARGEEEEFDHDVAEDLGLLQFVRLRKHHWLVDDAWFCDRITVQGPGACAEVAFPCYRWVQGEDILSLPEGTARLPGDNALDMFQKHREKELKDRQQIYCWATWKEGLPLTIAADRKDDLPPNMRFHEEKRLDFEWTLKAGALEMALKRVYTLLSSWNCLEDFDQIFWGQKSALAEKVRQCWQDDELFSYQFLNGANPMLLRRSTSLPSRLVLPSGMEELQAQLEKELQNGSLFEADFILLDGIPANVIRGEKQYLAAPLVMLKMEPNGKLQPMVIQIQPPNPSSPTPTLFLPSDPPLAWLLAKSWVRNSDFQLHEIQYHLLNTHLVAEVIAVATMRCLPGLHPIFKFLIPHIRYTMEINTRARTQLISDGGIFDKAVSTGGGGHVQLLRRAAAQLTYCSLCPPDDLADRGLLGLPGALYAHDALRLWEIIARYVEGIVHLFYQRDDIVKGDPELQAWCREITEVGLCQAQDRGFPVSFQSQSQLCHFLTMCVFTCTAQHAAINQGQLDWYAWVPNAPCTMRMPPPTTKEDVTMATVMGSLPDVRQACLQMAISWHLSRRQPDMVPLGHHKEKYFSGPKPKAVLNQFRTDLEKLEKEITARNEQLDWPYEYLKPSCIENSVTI

[2] = molecular target: T2, 12-LOX in primary human islets (Homo sapiens, UniProt P18054); test: Inhibition of 12-HETE Production in Human Donor Islets; type: cell-based; conditions: 10 μM, islets of two type 2 diabetic donors, AA + A23187
T2 sequence (P18054 1-663): T1 sequence (P18054 1-663)

[3] = DPPH Antioxidant Test; conditions: 5 μM test reagent, 500 μM DPPH
[4] = molecular target: T3, Human platelet 12-lipoxygenase (12-LOX) (Homo sapiens, UniProt P18054); test: Lipoxygenase UV-Vis-based manual assay, 12-LOX; type: biochemical; conditions: Triton X-100 from 0.005% to 0.02%
T3 sequence (P18054 1-663): T1 sequence (P18054 1-663)

inhibition of PAR1-AP-mediated 12-HETE production [1]	inhibition of stimulated 12-HETE production [2] [%]	change in IC50 with increasing Triton X-100 (aggregation test) [4]	SMILES	reduction of DPPH [3]
significant inhibition	74	–	CCC(=O)NC(c1cccs1)c1cc([N+](=O)[O-])c2cccnc2c1O (centres unmarked) [Compound 1, N-((8-hydroxy-5-nitroquinolin-7-yl)(thiophen-2-yl)methyl)propionamide]	no reduction of DPPH was observed
–	–	negligible changes in the IC50	CC(=O)NC(c1cccs1)c1cc(Cl)c2cccnc2c1O (centres unmarked) [Compound 3, N-((5-chloro-8-hydroxyquinolin-7-yl)(thiophen-2-yl)methyl)acetamide]	–
–	–	–	CC(Cc1ccc(O)c(O)c1)C(C)Cc1ccc(O)c(O)c1 (centres unmarked) [NDGA, Nordihydroguaiaretic acid, reference compound]	Stoichiometric reduction of DPPH

Reference: paper PMC3150642 (Journal of medicinal chemistry, 2011)
